Source: patent publication US20100113272A1, “HERBICIDAL COMPOSITION AND METHOD OF USE THEREOF” (SYNGENTA CORP PROTECTION, INC., priority 2006, published 2010)

Key:
[1] = tested on: large crabgrass (Digitaria sanguinalis); assay: Glasshouse trial, control of large crabgrass, mesotrione and prodiamine spray applied post-emergence; type: in vivo; conditions: for control of large crabgrass on its own: spray post-emergence, 14 DAT
Experimental: A glasshouse trial was carried out. Large crabgrass seeds were sown into standard glasshouse potting mix (1:1 v/v Promix:Vero sand soil) contained in 10 cm square plastic pots. Treatments were replicated three times. Mesotrione (in the form Callisto® 480SE) was applied post-emergence to large crabgrass (Digitaria sanguinalis) at either 12 g ai/ha or 24 g ai/ha with or without prodiamine (in the form Barricade® 4FL). When used, prodiamine was applied at a rate of 210 g ai/ha or 420 g ai/ha. The adjuvant system was X-77 at 0.1% v/v in deionised water. 200 litres of herbicide/adjuvant system was used per hectare. General weed control was evaluated at 7 and 14 days after treatment (DAT). It is noted that all herbicides were applied at reduced field rates because herbicide effects are magnified in a glasshouse environment. Rates were chosen to give a 50 to 70% level of control with herbicides applied alone as this allows for detection of any synergistic effect when tank mixtures are used.
The results were evaluated using the Colby formula. The expected result for (A+B) is (A+B)−(A×B/100) where A and B are the ‘observed’ results for A and B on their own.

large crabgrass = assay: Glasshouse trial, control of large crabgrass, mesotrione and prodiamine spray applied pre-emergence; type: in vivo, Digitaria sanguinalis; conditions: for control of large crabgrass on its own: spray pre-emergence, 7 DAT
Experimental: A glasshouse trial was carried out. Large crabgrass seeds were sown into standard glasshouse potting mix (1:1 v/v Promix:Vero sand soil) contained in 10 cm square plastic pots. Treatments were replicated three times. Mesotrione (in the form Callisto® 480SE) was applied pre-emergence to large crabgrass at either 12 g ai/ha or 24 g ai/ha with or without prodiamine (in the form Barricade® 4FL). When used, prodiamine was applied at a rate of 53 g ai/ha or 105 g ai/ha. The adjuvant system was X-77 at 0.1% v/v in deionised water. 200 litres of herbicide/adjuvant system was used per hectare. General weed control was evaluated at 7 and 14 days after treatment (DAT).
It is noted that control of large crabgrass with mesotrione alone applied pre-emergence at the higher rate (24 g ai/ha) was high; thus it was not possible to detect synergy when mesotrione was mixed with prodiamine. […] The results were evaluated using the Colby formula. The expected result for (A+B) is (A+B)−(A×B/100) where A and B are the ‘observed’ results for A and B on their own.

| SMILES | control of large crabgrass on its own ([1]; prodiamine alone, 210 or 420 g ai/ha) | control of large crabgrass on its own (large crabgrass; prodiamine alone, 105 g ai/ha) [%] | control of large crabgrass on its own ([1]; mesotrione alone at the higher rate (24 g ai/ha)) [%] | control of large crabgrass on its own ([1]; mesotrione alone at the lower rate (12 g ai/ha)) [%] | control of large crabgrass with mesotrione alone ([1]; post-emergence, 7 DAT) | control of large crabgrass on its own (large crabgrass; mesotrione alone, 12 g ai/ha) [%] | control of large crabgrass with mesotrione alone (large crabgrass; pre-emergence at the higher rate (24 g ai/ha)) |
| --- | --- | --- | --- | --- | --- | --- | --- |
| CCCN(CCC)c1c([N+](=O)[O-])cc(C(F)(F)F)c(N)c1[N+](=O)[O-] [Prodiamine, N^3,N^3-di-n-propyl-2,4-dinitro-6-(trifluoromethyl)-m-phenylenediamine] | no control | 76 |  |  |  |  |  |
| CS(=O)(=O)c1ccc(C(=O)C2C(=O)CCCC2=O)c([N+](=O)[O-])c1 [Mesotrione, 2-(2′-nitro-4′-methylsulphonylbenzoyl)-1,3-cyclohexanedione] |  |  | 66.7 | 46.7 | relatively high | 50 | high |
